Source: patent US20230190835A1, “PROBIOTIC BACTERIA FOR TREATING ALZHEIMER'S DISEASE” (RRW B.V., priority 2020, published 2023)

Tested on: C. elegans nematode strain with inducible amyloid-β accumulation (CL4176)
Assay: Alzheimer's disease paralysis assay
Assay type: in vivo
Source text: The effect of probiotic bacteria and their combinations with other active agents has been studied in C. elegans nematode strains as an animal model for amyloidoses such as Alzheimer's disease. These strains accumulate amyloid-β peptides that form plaques in the nematodes and lead to paralysis of the animals. In certain strains, such as strain CL4176, Aβ accumulation occurs only in response to heat shock. Thus, the Alzheimer's disease pattern is inducible in these strains. The number of paralyzed nematodes after a certain period of time following induction of Aβ accumulation indicates the extent of Alzheimer's disease. Thus, the effect of certain substances to which the nematodes are exposed on the number of paralyzed animals is a measure of the anti-Alzheimer effect of these substances.
Nematodes of strain CL4176 were synchronized at the young larval stage and allowed to grow to the L4 stage on normal growth medium for 72 h at 16° C. The probiotic bacteria to be tested were added to the growth medium. Then the nematodes were exposed to the test substance and the temperature was increased to 25° C. This heat shock induced Aβ accumulation, simulating the onset of Alzheimer's disease. Approximately every 24 h, the number of animals that were still mobile and those that were paralyzed as a result of Aβ accumulation was determined.
C. elegans of strain CL4176 were exposed to a mixture of different probiotic bacteria at a bacterial concentration of 50 cfu (colony-forming units) in this assay. The bacterial mixture contained the following bacterial species: Enterococcus faecium, Bifidobacterium longum, Streptococcus thermophilus, Lactobacillus acidophilus, Lactobacillus plantarum and Bifidobacterium breve. […] In another series of tests, the nematodes were additionally treated with cannabidiol (CBD).
The two probiotic bacterial strains Lactobacillus rhamnosus and Lactobacillus plantarum were allowed to grow to stationary phase and mixed with the normal diet of nematodes (OP50) E. coli bacteria). C. elegans of strain CL4176 at L4 larval stage were exposed to the probiotic bacteria and other active agents in the induction of Aβ accumulation by increasing the temperature to 25° C. The number of paralyzed animals was checked every 24 h and determined after 96 h.
In the described Alzheimer's disease animal model assay, the effect of the bacterial strain Pseudomonas fluorescens was tested. Upon induction of Aβ accumulation by increasing temperature to 25° C., nematodes were exposed to Pseudomonas fluorescens bacteria, curcumin or CBD, or a combination of the bacteria and the active agent. The number of paralyzed nematodes was determined 96 h after induction of Aβ accumulation.

C=C(C)[C@@H]1CCC(C)=C[C@H]1c1c(O)cc(CCCCC)cc1O [CBD, cannabidiol]
number of paralyzed nematodes (0.08% (v/v), 96 h, FIGS. 3 and 4): reduced
paralytic nematodes, individually (Example 3, 96 h after induction of Aβ accumulation, FIGS. 7 and 8): reduction in paralytic nematodes
effect of combination with Pseudomonas fluorescens (combination of Pseudomonas fluorescens and active agent, 96 h after induction of Aβ accumulation, FIGS. 7 and 8): strong synergistic increase in effect
effect of additional treatment with the active agent on the effect of the probiotic bacterial mixture (in combination with probiotic bacterial mixture, 72 h after induction of Aβ accumulation, FIG. 1): significantly increased the effect of probiotic bacteria

CCCCCc1cc2c(c(O)c1C(=O)O)[C@@H]1C=C(C)CC[C@H]1C(C)(C)O2 [THCA, delta-9-tetrahydrocannabinolic acid]
number of paralyzed nematodes (60 μl, 96 h, FIGS. 3 and 4): reduced

Lactobacillus plantarum
paralysis due to Aβ accumulation (bacteria grown to stationary phase, mixed with OP50 E. coli diet, 96 h, FIGS. 3 and 4): reduction in paralysis
prevention of the effects of Aβ accumulation by combination of bacterium with active agents (stationary-phase bacteria combined with curcumin, CBD, THCA or combinations thereof, 96 h, FIGS. 3 and 4): significant to synergistic prevention of the effects of Aβ accumulation
